Data reported in patent US9580437B2, “Triazolopyrimidine compounds and uses thereof” (Novartis AG, priority 2014, dated 2017).

Tests used:
EED (1-441)-His protein = EED (1-441)-His protein (Homo sapiens (Human), UniProt O75530); experiment: EED-H3K27Me3 peptide competition binding assay by AlphaScreen; conditions: read-out: (a) IC50 EED Alphascreen binding Qualified
Source text: EED-H3K27Me3 peptide competition binding assay by AlphaScreen (α-screen)

[1] = target: wild type PRC2 (wtPRC2) complex (Homo sapiens (Human), UniProt O75530); experiment: EED LC-MS assay; assay type: biochemical; conditions: read-out: (b) IC50 EED LC-MS Qualified
Description: A 6 μL solution of 3 μM of the peptide substrate H3K27Me0 (histone H3[21-44]-biotin) in reaction buffer was added to initiate each reaction. […] ELISA (H3K27 Methylation) Assay

EED (1-441)-His protein, sequence (O75530 whole entry): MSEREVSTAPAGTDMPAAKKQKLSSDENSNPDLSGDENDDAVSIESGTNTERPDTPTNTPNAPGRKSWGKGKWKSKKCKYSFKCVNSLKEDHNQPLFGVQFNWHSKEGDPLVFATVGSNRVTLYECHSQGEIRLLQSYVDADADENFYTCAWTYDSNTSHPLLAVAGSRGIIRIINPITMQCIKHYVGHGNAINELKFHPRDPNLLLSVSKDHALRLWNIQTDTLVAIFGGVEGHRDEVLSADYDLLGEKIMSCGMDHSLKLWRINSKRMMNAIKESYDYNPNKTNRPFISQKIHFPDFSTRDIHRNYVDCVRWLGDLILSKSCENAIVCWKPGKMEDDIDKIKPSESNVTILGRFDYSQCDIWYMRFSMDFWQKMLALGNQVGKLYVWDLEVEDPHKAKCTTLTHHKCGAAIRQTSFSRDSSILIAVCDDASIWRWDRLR
wild type PRC2 (wtPRC2) complex, sequence (O75530 whole entry): as above
wild type PRC2 (wtPRC2) complex, sequence (Q15910 whole entry partner): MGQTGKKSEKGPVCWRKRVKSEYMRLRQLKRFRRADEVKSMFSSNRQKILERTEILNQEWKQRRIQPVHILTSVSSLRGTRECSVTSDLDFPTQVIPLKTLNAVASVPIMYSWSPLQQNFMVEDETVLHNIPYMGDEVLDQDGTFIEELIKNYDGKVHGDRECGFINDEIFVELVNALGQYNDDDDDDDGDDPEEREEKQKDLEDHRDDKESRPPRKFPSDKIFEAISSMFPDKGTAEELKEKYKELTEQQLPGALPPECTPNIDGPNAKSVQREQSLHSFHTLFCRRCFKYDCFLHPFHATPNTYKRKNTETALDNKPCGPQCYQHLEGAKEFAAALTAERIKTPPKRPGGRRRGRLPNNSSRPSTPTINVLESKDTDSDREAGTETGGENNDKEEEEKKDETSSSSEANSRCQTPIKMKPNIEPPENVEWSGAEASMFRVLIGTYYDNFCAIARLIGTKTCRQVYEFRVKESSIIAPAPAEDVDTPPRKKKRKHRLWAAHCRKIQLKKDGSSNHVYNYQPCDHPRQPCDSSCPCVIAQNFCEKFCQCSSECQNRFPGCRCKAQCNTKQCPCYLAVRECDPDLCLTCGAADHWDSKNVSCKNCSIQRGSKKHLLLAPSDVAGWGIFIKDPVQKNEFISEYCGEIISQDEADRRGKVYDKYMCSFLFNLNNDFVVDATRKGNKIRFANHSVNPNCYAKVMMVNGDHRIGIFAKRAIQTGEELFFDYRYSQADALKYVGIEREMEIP
wild type PRC2 (wtPRC2) complex, sequence (Q15022 whole entry partner): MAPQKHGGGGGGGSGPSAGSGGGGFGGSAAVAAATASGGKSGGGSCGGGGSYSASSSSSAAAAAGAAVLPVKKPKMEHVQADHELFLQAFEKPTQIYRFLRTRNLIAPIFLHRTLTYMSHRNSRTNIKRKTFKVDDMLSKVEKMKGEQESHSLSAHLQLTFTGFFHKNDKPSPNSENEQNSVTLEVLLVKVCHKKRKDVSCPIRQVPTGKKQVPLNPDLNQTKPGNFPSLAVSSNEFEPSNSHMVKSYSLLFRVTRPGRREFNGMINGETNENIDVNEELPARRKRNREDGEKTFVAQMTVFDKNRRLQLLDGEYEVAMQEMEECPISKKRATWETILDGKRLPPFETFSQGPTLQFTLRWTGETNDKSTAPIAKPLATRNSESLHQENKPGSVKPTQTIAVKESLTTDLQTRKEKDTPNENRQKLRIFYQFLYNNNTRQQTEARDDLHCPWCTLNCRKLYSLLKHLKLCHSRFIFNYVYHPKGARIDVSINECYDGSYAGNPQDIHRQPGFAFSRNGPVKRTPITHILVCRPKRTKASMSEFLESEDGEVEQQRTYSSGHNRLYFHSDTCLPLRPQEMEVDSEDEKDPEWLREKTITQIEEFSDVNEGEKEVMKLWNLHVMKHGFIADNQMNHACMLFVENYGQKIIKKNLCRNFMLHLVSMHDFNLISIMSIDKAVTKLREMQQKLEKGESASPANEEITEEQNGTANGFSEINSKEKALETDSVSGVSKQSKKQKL

Compound	IC50 (EED (1-441)-His protein) [nM]	IC50 [1] [nM]
Cc1nc(C(=O)N(C)C)ccc1-c1cnc(NCc2c(F)ccc3c2CCO3)n2cnnc12 [Example 199, 5-(5-(((5-fluoro-2,3-dihydrobenzofuran-4-yl)methyl)amino)-[1,2,4]triazolo[4,3-c]pyrimidin-8-yl)-N,N,6-trimethylpicolinamide]	4.2	7.2
Clc1ccncc1-c1cnc(NCc2cccc3c2CCO3)n2cnnc12 [Example 50, 8-(4-chloropyridin-3-yl)-N-((2,3-dihydrobenzofuran-4-yl)methyl)-[1,2,4]triazolo[4,3-c]pyrimidin-5-amine]	19.1	41.2
Fc1ccc2c(c1CNc1ncc(-c3cnn(C4CC4)c3)c3nncn13)CCO2 [Example 150, 8-(1-cyclopropyl-1H-pyrazol-4-yl)-N-((5-fluoro-2,3-dihydrobenzofuran-4-yl)methyl)-[1,2,4]triazolo[4,3-c]pyrimidin-5-amine]	4.5	7
Cc1c(-c2cnc(NCc3c(F)ccc4c3CCO4)n3cnnc23)ccc[n+]1[O-] [Example 204, 3-(5-(((5-fluoro-2,3-dihydrobenzofuran-4-yl)methyl)amino)-[1,2,4]triazolo[4,3-c]pyrimidin-8-yl)-2-methylpyridine 1-oxide]	10.6	19.3
CN1CCN(C(=O)c2ccc(-c3cnc(NCc4c(F)ccc5c4CCO5)n4cnnc34)cc2)CC1 [Example 72, (4-(5-(((5-fluoro-2,3-dihydrobenzofuran-4-yl)methyl)amino)-[1,2,4]triazolo[4,3-c]pyrimidin-8-yl)phenyl)(4-methylpiperazin-1-yl)methanone]	9.3	17.5
Cc1cc(F)ccc1-c1cnc(NCc2c(F)ccc3c2CCO3)n2cnnc12 [Example 165, N-((5-fluoro-2,3-dihydrobenzofuran-4-yl)methyl)-8-(4-fluoro-2-methylphenyl)-[1,2,4]triazolo[4,3-c]pyrimidin-5-amine]	4.5	7.4
Cc1cnc(C(F)F)cc1-c1cnc(NCc2c(F)ccc3c2CCO3)n2cnnc12 [Example 198, 8-(2-(difluoromethyl)-5-methylpyridin-4-yl)-N-((5-fluoro-2,3-dihydrobenzofuran-4-yl)methyl)-[1,2,4]triazolo[4,3-c]pyrimidin-5-amine]	4.4	17.3
O=C(c1ccc(-c2cnc(NCc3c(F)ccc4c3CCO4)n3cnnc23)cn1)N1CCCC1 [Example 129, (5-(5-(((5-fluoro-2,3-dihydrobenzofuran-4-yl)methyl)amino)-[1,2,4]triazolo[4,3-c]pyrimidin-8-yl)pyridin-2-yl)(pyrrolidin-1-yl)methanone]	3.9	8.4
Cc1nn(CCO)cc1-c1cnc(NCc2c(F)ccc3c2CCO3)n2cnnc12 [Example 190, 2-(4-(5-(((5-fluoro-2,3-dihydrobenzofuran-4-yl)methyl)amino)-[1,2,4]triazolo[4,3-c]pyrimidin-8-yl)-3-methyl-1H-pyrazol-1-yl)ethanol]	4.5	17.1
COCCn1nc(C)c(-c2cnc(NCc3c(F)ccc4c3CCO4)n3cnnc23)c1C [Example 159, N-((5-fluoro-2,3-dihydrobenzofuran-4-yl)methyl)-8-(1-(2-methoxyethyl)-3,5-dimethyl-1H-pyrazol-4-yl)-[1,2,4]triazolo[4,3-c]pyrimidin-5-amine]	5	10.3
CN(C)CCc1cccc(-c2cnc(NCc3cccc4c3CCO4)n3cnnc23)c1 [Example 89, N-((2,3-dihydrobenzofuran-4-yl)methyl)-8-(3-(2-(dimethylamino)ethyl)phenyl)-[1,2,4]triazolo[4,3-c]pyrimidin-5-amine]	4.5	10.3
Fc1ccc2c(c1CNc1ncc(-c3cncnc3)c3nncn13)CCO2 [Example 206, N-((5-fluoro-2,3-dihydrobenzofuran-4-yl)methyl)-8-(pyrimidin-5-yl)-[1,2,4]triazolo[4,3-c]pyrimidin-5-amine]	9.1	9.5
Fc1ccc2c(c1CNc1ncc(-c3ccnc(C(F)(F)F)c3)c3nncn13)CCO2 [Example 185, N-((5-fluoro-2,3-dihydrobenzofuran-4-yl)methyl)-8-(2-(trifluoromethyl)pyridin-4-yl)-[1,2,4]triazolo[4,3-c]pyrimidin-5-amine]	4.4	6.7
Cc1ccc(-c2cnc(NCc3c(F)ccc4c3CCO4)n3cnnc23)c(C)n1 [Example 167, 8-(2,6-dimethylpyridin-3-yl)-N-((5-fluoro-2,3-dihydrobenzofuran-4-yl)methyl)-[1,2,4]triazolo[4,3-c]pyrimidin-5-amine]	3.3	5.2
Cc1cc(-c2cnc(NCc3c(F)ccc4c3CCO4)n3cnnc23)ccn1 [Example 116, N-((5-fluoro-2,3-dihydrobenzofuran-4-yl)methyl)-8-(2-methylpyridin-4-yl)-[1,2,4]triazolo[4,3-c]pyrimidin-5-amine]	4.7	7.6
c1cncc(-c2cnc(NCc3cccc4c3CCO4)n3cnnc23)c1 [Example 16, N-((2,3-dihydrobenzofuran-4-yl)methyl)-8-(pyridin-3-yl)-[1,2,4]triazolo[4,3-c]pyrimidin-5-amine]	10.8	24
O=S(=O)(NCCO)c1ccc(-c2cnc(NCc3cccc4c3CCO4)n3cnnc23)cc1 [Example 40, 4-(5-(((2,3-dihydrobenzofuran-4-yl)methyl)amino)-[1,2,4]triazolo[4,3-c]pyrimidin-8-yl)-N-(2-hydroxyethyl)benzenesulfonamide]	56.2	56.6
CS(=O)(=O)CCOc1ccc(-c2cnc(NCc3cccc4c3CCO4)n3cnnc23)cc1 [Example 75, N-((2,3-dihydrobenzofuran-4-yl)methyl)-8-(4-(2-(methylsulfonyl)ethoxy)phenyl)-[1,2,4]triazolo[4,3-c]pyrimidin-5-amine]	34	37.5
Cc1cnc(F)cc1-c1cnc(NCc2c(F)ccc3c2CCO3)n2cnnc12 [Example 183, N-((5-fluoro-2,3-dihydrobenzofuran-4-yl)methyl)-8-(2-fluoro-5-methylpyridin-4-yl)-[1,2,4]triazolo[4,3-c]pyrimidin-5-amine]	4.8	8.1
Cc1cc(S(C)(=O)=O)ccc1-c1cnc(NCc2c(F)ccc3c2CCO3)n2cnnc12 [Example 128, N-((5-fluoro-2,3-dihydrobenzofuran-4-yl)methyl)-8-(2-methyl-4-(methylsulfonyl)phenyl)-[1,2,4]triazolo[4,3-c]pyrimidin-5-amine]	8.6	16.5
O=CN1CCN(c2ccc(-c3cnc(NCc4cccc5c4CCO5)n4cnnc34)cn2)CC1 [Example 134, 4-(5-(5-(((2,3-dihydrobenzofuran-4-yl)methyl)amino)-[1,2,4]triazolo[4,3-c]pyrimidin-8-yl)pyridin-2-yl)piperazine-1-carbaldehyde]	17.3	30.5
Cc1nccc(-c2cnc(NCc3c(F)ccc4c3CCO4)n3cnnc23)c1C [Example 177, 8-(2,3-dimethylpyridin-4-yl)-N-((5-fluoro-2,3-dihydrobenzofuran-4-yl)methyl)-[1,2,4]triazolo[4,3-c]pyrimidin-5-amine]	3.8	4.4
Cc1nc(CN(C)C)ccc1-c1cnc(NCc2c(F)ccc3c2CCO3)n2cnnc12 [Example 223, 8-(6-((dimethylamino)methyl)-2-methylpyridin-3-yl)-N-((5-fluoro-2,3-dihydrobenzofuran-4-yl)methyl)-[1,2,4]triazolo[4,3-c]pyrimidin-5-amine]	8.4	18.4
OCCN1CCN(c2ccc(-c3cnc(NCc4cccc5c4CCO5)n4cnnc34)cn2)CC1 [Example 110, 2-(4-(5-(5-(((2,3-dihydrobenzofuran-4-yl)methyl)amino)-[1,2,4]triazolo[4,3-c]pyrimidin-8-yl)pyridin-2-yl)piperazin-1-yl)ethanol]	9.3	15.2
OCc1ncccc1-c1cnc(NCc2c(F)ccc3c2CCO3)n2cnnc12 [Example 7, (3-(5-(((5-fluoro-2,3-dihydrobenzofuran-4-yl)methyl)amino)-[1,2,4]triazolo[4,3-c]pyrimidin-8-yl)pyridin-2-yl)methanol]	4.8	9.3
CCOc1ccc(-c2cnc(NCc3cccc4c3CCO4)n3cnnc23)cn1 [Example 63, N-((2,3-dihydrobenzofuran-4-yl)methyl)-8-(6-ethoxypyridin-3-yl)-[1,2,4]triazolo[4,3-c]pyrimidin-5-amine]	75.6	68.6
Nc1ccncc1-c1cnc(NCc2cccc3c2CCO3)n2cnnc12 [Example 76, 8-(4-aminopyridin-3-yl)-N-((2,3-dihydrobenzofuran-4-yl)methyl)-[1,2,4]triazolo[4,3-c]pyrimidin-5-amine]	27.5	56.9
CC(C)S(=O)(=O)c1ccc(-c2cnc(NCc3cccc4occc34)n3cnnc23)cc1 [Example 215, N-(benzofuran-4-ylmethyl)-8-(4-(isopropylsulfonyl)phenyl)-[1,2,4]triazolo[4,3-c]pyrimidin-5-amine]	20.3	21.2
Fc1ccc2c(c1CNc1ncc(-c3cccnc3C(F)F)c3nncn13)CCO2 [Example 168, 8-(2-(difluoromethyl)pyridin-3-yl)-N-((5-fluoro-2,3-dihydrobenzofuran-4-yl)methyl)-[1,2,4]triazolo[4,3-c]pyrimidin-5-amine]	4.6	11.2
Fc1ccc2c(c1CNc1ncc(-c3cnccc3Cl)c3nncn13)CCO2 [Example 124, 8-(4-chloropyridin-3-yl)-N-((5-fluoro-2,3-dihydrobenzofuran-4-yl)methyl)-[1,2,4]triazolo[4,3-c]pyrimidin-5-amine]	10	15.4
